Legend:
[1] = system: A2058; test: Cytotoxicity against human A2058 cells; type: functional, cell-based
[2] = Cytotoxicity against human T75 cells; type: cell-based
[3] = system: B16-F10; test: Cytotoxicity against mouse B16-F10 cells; type: functional, cell-based
[4] = Selectivity index, ratio for IC50 for human T75 cells to IC50 for human A2058 cells

SMILES | IC50 [1] | IC50 [2] | IC50 [3] | Ratio IC50 [4]
CCCOc1c(OC)cc(CCC)cc1Oc1ccc(CCC)cc1OC | 52.2 µM | > 100 µM | 79 µM | >1.9
CCCc1ccc(Oc2cc(CCC)cc(OC)c2OC)c(OC)c1 | > 100 µM | > 100 µM | > 100 µM | –
C=CCc1ccc(Oc2cc(CC=C)cc(OC)c2Oc2ccccc2)c(OC)c1 | > 100 µM | > 100 µM | > 100 µM | –
C=CCc1ccc(Oc2cc(C(=O)C=C)cc(OC)c2OC)c(OC)c1 | > 100 µM | > 100 µM | > 100 µM | –
C=CCc1ccc(Oc2cc(C(=O)C=C)cc(OC)c2O)c(OC)c1 | 85.3 µM | > 100 µM | 82.2 µM | >1.2
C=CCc1ccc(Oc2cc(C(O)C=C)cc(OC)c2O)c(OC)c1 (stereo not given) | > 100 µM | > 100 µM | > 100 µM | –
COc1cc(C=O)ccc1Oc1cc(C=O)cc(OC)c1OC=O | 61.4 µM | > 100 µM | 80.2 µM | >1.6
COc1cc(CC(C)O)ccc1Oc1cc(CC(C)O)cc(OC)c1OCC(C)O (stereo not given) | > 100 µM | > 100 µM | > 100 µM | –
C=CCc1ccc(Oc2cc(C(O)C=C)cc(OC)c2OC)c(OC)c1 (stereo not given) | > 100 µM | > 100 µM | 90.3 µM | –
COc1cc(CC(C)=O)ccc1Oc1cc(CC(C)=O)cc(OC)c1OCC(C)=O | > 100 µM | > 100 µM | > 100 µM | –
COc1cc(CCCO)ccc1Oc1cc(CCCO)cc(OC)c1OCCCO | > 100 µM | > 100 µM | > 100 µM | –
CCCc1ccc(Oc2cc(CCC)cc(OC)c2Oc2ccccc2)c(OC)c1 | > 100 µM | > 100 µM | > 100 µM | –
CCC(O)Oc1c(OC)cc(C(O)CC)cc1Oc1ccc(C(O)CC)cc1OC (stereo not given) | > 100 µM | > 100 µM | > 100 µM | –
CCCS(=O)(=O)Nc1ccc(F)c(C(=O)c2c[nH]c3ncc(-c4ccc(Cl)cc4)cc23)c1F [VEMURAFENIB] | 8.7 µM | > 100 µM | – | >11.5

From ChEMBL document CHEMBL4725273, “Structure-activity relationship study of cytotoxic neolignan derivatives using multivariate analysis and computation-aided drug design” (Bioorg Med Chem Lett, 2020)
